Measurements from patent EP3831859A1, “COPOLYMER FOR ELECTRODE BINDER AND LITHIUM ION SECONDARY BATTERY” (SHOWA DENKO K.K., priority 2019, dated 2021).

Experiment: n-octanol/water partition coefficient LogP (JIS Z 7260-117)
Details: n-octanol/water

Going from `C=CC(N)=O` [acrylamide] to `C=CC(=O)OC` [methyl acrylate], the chromatographic logP rises from -0.56 to 0.8.

Compared with `C=CC(=O)OC1CCCCC1` [cyclohexyl acrylate], `C=C(C)C(=O)OC1CCCCC1` [cyclohexyl methacrylate] is higher in chromatographic logP: 2.76 for the first, 3.18 for the second.

`C=C(C)C(=O)NCCO` [N-hydroxyethylmethacrylamide] and `C=C(C)C(=O)NCO` [N-hydroxymethylmethacrylamide] are within 0.2 log units of each other in chromatographic logP: -0.95 for the first, -0.96 for the second.

Compared with `C=CC(=O)OCCCCO` [4-hydroxybutyl acrylate], `C=CC(=O)OCCO` [2-hydroxyethyl acrylate] is lower in chromatographic logP: 0.59 for the first, 0.01 for the second.

Going from `C=C(C)C(=O)OCCCCCCCCCCCCCCCCCC` [stearyl methacrylate] to `C=C(C)C(=O)OCCCC` [n-butyl methacrylate], the chromatographic logP falls from 9.87 to 2.74.

First: C=CC(=O)OCCCC [n-butyl acrylate]
Second: C=CC(=O)OCC(CC)CCCC (stereo not drawn) [2-ethylhexyl acrylate]
The chromatographic logP of the first is lower: 2.32 for the first, 4.2 for the second.

`C=CC(=O)OC(C)(C)C` [tert-butyl acrylate] and `C=CC(=O)OCC(C)C` [isobutyl acrylate] are within 0.2 log units of each other in chromatographic logP: 2.06 for the first, 2.16 for the second.

Compared with `C=C(C)C(=O)OCCO` [2-hydroxyethyl methacrylate], `C=C(C)C(=O)OC` [methyl methacrylate] is higher in chromatographic logP: 0.43 for the first, 1.38 for the second.

`C=CC(=O)NC` [N-methylacrylamide] gave a chromatographic logP of -0.59.

Same assay, conditions: n-octanol/water partition coefficient

First: C=C(C)C(=O)OC1CC2CCC1(C)C2(C)C (stereo not drawn) [isoboronyl methacrylate]
Second: C=CC(=O)OC1CC2CCC1(C)C2(C)C (stereo not drawn) [isoboronyl acrylate]
The LogP of the first is higher: 4.45 for the first, 4.03 for the second.

For `C=CC(=O)OCCCC` [n-butyl acrylate], the LogP was “Acrylic acid-n butyl (E-1) LogP = 2.32”.

Same assay, conditions: n-octanol/water, LogP, n-octanol/water partition coefficient

First: C=CC(=O)NCCC [N-propylacrylamide]
Second: C=CC(=O)NCCN(C)C [N-(dimethylaminoethyl) acrylamide]
The chromatographic logP of the first is higher: 0.43 for the first, -0.28 for the second.

Going from `C=C(C)C(=O)OCC(C)C` [isobutyl methacrylate] to `C=C(C)C(=O)OCC(C)O` (stereo not drawn) [2-hydroxypropyl methacrylate], the chromatographic logP falls from 2.58 to 0.78.

First: C=C(C)C(=O)OC(C)(C)C [tert-butyl methacrylate]
Second: C=C(C)C(=O)OC(C)C [isopropyl methacrylate]
The chromatographic logP of the first is higher: 2.48 for the first, 2.07 for the second.

First: C=C(CC(=O)O)C(=O)O [itaconic acid]
Second: O=C(O)/C=C/C(=O)O [fumaric acid]
The chromatographic logP of the first is higher: -0.08 for the first, -0.45 for the second.

Going from `C/C=C/C(=O)O` [crotonic acid] to `O=C(O)/C=C\C(=O)O` [maleic acid], the chromatographic logP falls from 0.66 to -0.45.

Going from `C=CC(=O)OCCCCCCCCCCCCCCCCCC` [stearyl acrylate] to `C=CC(=O)OCC` [ethyl acrylate], the chromatographic logP falls from 9.45 to 1.32.

Compared with `C=C(C)C(=O)NCC(C)O` (stereo not drawn) [N-(2-Hydroxypropyl) methacrylamide], `C=C(C)C(=O)NCC` [N-ethylmethacrylamide] is lower in chromatographic logP: 0.95 for the first, 0.34 for the second.

`C=C(C)C(N)=O` [methacrylamide] and `C=C(C)C(=O)NC` [N-methylmethacrylamide] are within 0.2 log units of each other in chromatographic logP: -0.14 for the first, -0.17 for the second.

First: C=C(C)C(=O)NC(C)C [N-isopropylmethacrylamide]
Second: C=C(C)C(=O)OCCC [n-propyl methacrylate]
The chromatographic logP of the first is lower: 0.7 for the first, 2.23 for the second.

`C=CC(=O)OCCC(=O)O` [β-carboxyethyl acrylate] and `C=CC(=O)OCC(C)O` (stereo not drawn) [2-hydroxypropyl acrylate] are within 0.2 log units of each other in chromatographic logP: 0.31 for the first, 0.36 for the second.

First: C=CC(=O)NCC(C)O (stereo not drawn) [N-(2-hydroxypropyl) acrylamide]
Second: C=CC(=O)NCN(C)C [N-(dimethylaminomethyl) acrylamide]
The chromatographic logP of the first is lower: -1.37 for the first, -0.47 for the second.

In the case of `C=CC(=O)NCCCN(C)C` [N-(dimethylaminopropyl) acrylamide], the chromatographic logP was -0.24.

Experiment: physchem
Details: not given

Molecule `C=CC(=O)NC(C)(C)CC(C)=O` [diacetone acrylamide] has a chromatographic logP of 0.04.

Same assay, conditions: LogP

Compared with `C=CC(=O)NCC` [N-ethylacrylamide], `C=CC(=O)NCO` [N-hydroxymethylacrylamide] is lower in chromatographic logP: -0.08 for the first, -1.38 for the second.

Going from `C=CC(=O)N(C)C` [N, N-dimethylacrylamide] to `C=C(C)C(=O)OCC(CC)CCCC` (stereo not drawn) [2-ethylhexyl methacrylate], the chromatographic logP rises from -0.14 to 4.62.
